How the values were obtained:
closed head injury = assay: Object recognition test after CHI; format: in vivo, mice
Experimental: This effect was sustained from 24 h to 21 days following injury as determined by the Mann-Whitney test (n=9-10 per group; * p<0.01; **p<0.001, as compared to vehicle treated, at the same day). (B) Mice were subjected to the object recognition test (Example 6) 3, 7, 14 and 21 days after CHI. The absolute time spent exploring each of the two objects was recorded and the % time calculated. At baseline (bl), when presented with two identical objects, exploration time of each object was about 50% in both groups. In the test (T) situation, after one of the objects was replaced by a novel one the % time spent exploring the new object was calculated.
Memory function was assessed by ORT (Object Recognition Test) and the results are depicted in FIG. 5B. […] Both groups spent equal time at the two objects (˜50% of total exploration time) at the baseline measurements, at all times post CHI. […] At 21 days, it appears that the vehicle-treated mice regained their ability, and exploration time reached a similar level to that of the IA-treated mice.

NF-κB (p65 sub-unit) = assay: p65 subunit immunostaining, nuclear accumulation of NF-κB in HeLa cells; format: cell-based; conditions: TNFα stimulation, IA 140 μM
Experimental: (A) IA inhibits IKK phosphorylation. HeLa cells were stimulated with TNFα (20 ng/ml for 20 minutes) in the absence or presence of IA (140 μM) as shown. Whole cell extracts were prepared and analyzed for the phosphoryation of IKKα and IKKβ by Western blotting (WB). (B) HeLa cells were stimulated with TNFα (20 ng/ml for 20 minutes) in the absence or presence of IA (140 μM). Cells were fixed and then stained with rabbit anti-p65 followed by anti-rabbit Rhodamine Red-labeled secondary Ab. and with DAPI for nuclei location (not shown). (B1) HeLa cells, no treatment; (B2) HeLa cells +IA; (B3) HeLa cells +TNF; (B4) HeLa cells +IA+TNF. The cells were examined under an Axioscope Zeiss microscope with a plan-Neofluor * 60 lens. Results of one of three independent experiments are shown.
p65 Subunit Immunostaining. HeLa Cells were preincubated with IA and then stimulated with TNFα as described in the IκBα degradation assay above. Cells were then fixed with formaldehyde 1%, permeabilized with 0.25% Triton X-100, stained with rabbit anti-p65 (Santa Cruz, Calif., USA) and visualized with anti-rabbit Rhodamine Red-labeled secondary antibody (Jackson ImmunoResearch, Baltimore, USA). Cells were also stained with DAPI (blue) for nuclei location (data not shown). The cells were examined under an Axioscope Zeiss microscope with a plan-Neofluor * 60 lens.

IκBα degradation = IκBα degradation in TNFα-stimulated HeLa cells (Western blot); format: cell-based; conditions: HeLa cells pre-incubated 2 hrs, then TNFα 20 ng/ml for 20 minutes
Experimental: HeLa cells were pre-incubated with IA (FIG. 1A) or IN (FIG. 1B) at the indicated concentrations for 2 hrs prior to 20 minutes exposure to TNFα (20 ng/ml). At least three more experiments were repeated with highest indicated dose, resulting similarly.
IκBα Degradation. HeLa cells were pre-incubated with IA (50 μg/ml, dissolved in ethanol) for 2 hrs, and then stimulated for 20 minutes with TNFα (20 ng/ml, Emeryville, Calif., USA). After removing the slides from plates for immonostaining (see below), proteins were extracted from remaining cells in the plates. Proteins were extracted from cells in NP-40 lysis buffer. Total protein concentration was determined using the Bradford method. Lysates were then analyzed either by Western blotting (WB).
Western Blot (WB). Following separation by SDS-PAGE, proteins were blotted to a polyvinylidene difluoride (PVDF) membrane (Millipore). The membrane was blocked in 5% (w/v) milk powder and then incubated in TBST containing the primary antibody and 2% (w/v) milk powder. All phospho-specific antibodies were purchased from Cell signaling Inc. αIκBa, αp65 and αCOX2 antibodies from Santa Cruz Inc. (California, USA). After binding of an appropriate secondary antibody coupled to horseradish peroxidase, proteins were visualized by enhanced chemiluminiscence according to the instructions of the manufacturer (Amersham Lifescience).

SMILES: CC(=O)OC1CC/C(C)=C/CC/C(C)=C/CC2(C(C)C)CCC1(C)O2 (centres unmarked) [IA, incensole acetate]
- time exploring the new object, persistence of the effect (closed head injury; 7 and 14 days post injury): sustained for 7 and 14 days
- time exploring the new object (closed head injury; 3 days post injury, 50 mg/kg, P=0.01): significantly longer times exploring the new object
- memory function of naïve, non-injured mice (closed head injury; non-injured mice, data not shown): not affected
- nuclear accumulation of NF-κB (p65) (NF-κB (p65 sub-unit)): inhibited the nuclear accumulation of NF-κB
- IκBα degradation (IκBα degradation): inhibited IκBα degradation in a dose dependent manner

Reference: US20100099756A1, “USES OF INCENSOLE, INCENSOLE ACETATE AND DERIVATIVES THEREOF” (YISSUM RESEARCH DEVELOPMENT COMPANY OF THE HEBREW …, priority 2006, published 2010)
